The record followed here is patent publication US11142526B2, “Spirocycle compounds and methods of making and using same” (H. Lundbeck A/S, priority 2017, dated 2021).

Where two headings read alike, the source gives them in different places.

Experiment [1] deals with T1, MAGL (Mus musculus (Mouse), UniProt O35678). Put plainly: In vitro competitive activity-based protein profiling, mouse brain proteome. Type of experiment: biochemical. The following applies: for inhibition at 1 µM: mouse; for IC50: mouse brain.
T1 sequence (O35678 whole entry): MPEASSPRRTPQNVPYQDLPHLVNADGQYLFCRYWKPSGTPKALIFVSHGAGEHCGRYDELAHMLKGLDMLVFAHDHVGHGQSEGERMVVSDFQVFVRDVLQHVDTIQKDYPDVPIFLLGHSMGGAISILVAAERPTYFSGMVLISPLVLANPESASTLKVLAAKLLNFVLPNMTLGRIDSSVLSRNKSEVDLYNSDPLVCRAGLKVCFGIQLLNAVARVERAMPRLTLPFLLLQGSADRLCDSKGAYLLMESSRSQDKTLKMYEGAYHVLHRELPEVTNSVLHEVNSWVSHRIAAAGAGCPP
Experiment [2] concerns the target T1, MAGL. The experiment can be described thus: Mouse brain proteomes from inhibitor treated mice (oral gavage, brain MAGL activity 4 h after administration). Type of experiment: in vivo. The settings on record: 5 mg/kg oral gavage. The procedure: Preparation of Mouse Brain Proteomes from Inhibitor Treated Mice.
Inhibitors were administered to wild-type C57B1/6J by oral gavage in a vehicle of polyethylene glycol.

Experiment [3] addresses MAGL (Homo sapiens (Human), UniProt Q99685). Put plainly: In vitro competitive activity-based protein profiling (gel-based, FP-Rh or HT-01 probe). Type of experiment: biochemical. The procedure: In Vitro Competitive Activity-Based Protein Profiling.
Proteomes (human prefrontal cortex or cell membrane fractions) (50 μL, 1.0 mg/mL total protein concentration) were preincubated with varying concentrations of inhibitors at 37° C. After 30 min, FP-Rh or HT-01 (1.0 μL, 50 μM in DMSO) was added and the mixture was incubated for another 30 min at room temperature. Reactions were quenched with SDS loading buffer (15 μL—4×) and run on SDS-PAGE.

The mark [4] stands for this setting: human PC3, read-out: MAGL % Inhibition at 1 μM (human PC3).
Where [5] appears, read: human PC3, read-out: MAGL Human PC3 (IC50).
[6] abbreviates: human PFC (prefrontal cortex), read-out: MAGL % Inhibition at 1 μM (human PFC).

MAGL (Homo sapiens (Human), UniProt Q99685), sequence (Q99685 whole entry): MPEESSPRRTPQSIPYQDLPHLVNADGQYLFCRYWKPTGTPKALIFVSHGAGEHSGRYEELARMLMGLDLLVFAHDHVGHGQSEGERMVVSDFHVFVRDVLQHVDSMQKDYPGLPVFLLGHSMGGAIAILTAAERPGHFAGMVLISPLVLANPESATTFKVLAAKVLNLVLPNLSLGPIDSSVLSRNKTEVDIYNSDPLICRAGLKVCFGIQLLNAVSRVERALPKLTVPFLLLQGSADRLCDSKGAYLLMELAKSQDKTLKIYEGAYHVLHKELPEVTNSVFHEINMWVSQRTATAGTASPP

With `CC(C)n1cc(CN2CCC3(CCN(C(=O)OC(C(F)(F)F)C(F)(F)F)CC3)C2)c(-c2ccccc2)n1` [Example 6, 1,1,1,3,3,3-Hexafluoropropan-2-yl 2-((1-isopropyl-3-phenyl-1H-pyrazol-4-yl)methyl)-2,8-diazaspiro[4.5]decane-8-carboxylate], on MAGL [1], the inhibition (in general, the change of the read-out against control, counted positive when it falls) at 1 µM was over 75% and the half-maximal inhibitory concentration (IC50) (in general, the concentration that gives 50% inhibition) was under 100 nM. Further, the “MAGL % Inhibition at 5 mg/kg (Mouse)” value at MAGL [2] is “## (% inhibition is less than 75% and greater than 25%)”.
At MAGL [1], `CCc1cc(CN2CCC3(CCN(C(=O)OC(C(F)(F)F)C(F)(F)F)CC3)C2)n(C2CCOCC2)n1` [Example 7, 1,1,1,3,3,3-Hexafluoropropan-2-yl 2-((3-ethyl-1-(tetrahydro-2H-pyran-4-yl)-1H-pyrazol-5-yl)methyl)-2,8-diazaspiro[4.5]decane-8-carboxylate] returned an inhibition at 1 µM of over 75% and a half-maximal inhibitory concentration (IC50) of under 100 nM. Also, the “MAGL % Inhibition at 5 mg/kg (Mouse)” value on MAGL [2] is given as “### (% inhibition is greater than or equal to 75%)”.
The like results for `O=C(OC(C(F)(F)F)C(F)(F)F)N1CCC2(CCCN2Cc2cc3c(Cl)cc(Cl)cc3[nH]2)CC1` [Example 11, 1,1,1,3,3,3-Hexafluoropropan-2-yl 1-((4,6-dichloro-1H-indol-2-yl)methyl)-1,8-diazaspiro[4.5]decane-8-carboxylate] were, in that order, over 75%, under 100 nM and “### (% inhibition is greater than or equal to 75%)”.
Take `CC1(NC(=O)c2cn3c(n2)CN(C(=O)C2(F)CC2)CC3)CCN(C(=O)OC(C(F)(F)F)C(F)(F)F)CC1` [Example 192, 1,1,1,3,3,3-Hexafluoropropan-2-yl 4-(7-(1-fluorocyclopropane-1-carbonyl)-5,6,7,8-tetrahydroimidazo[1,2-a]pyrazine-2-carboxamido)-4-methylpiperidine-1-carboxylate]: the inhibition at 1 µM on MAGL [1] and at MAGL [3] (setting [4]) was over 75% in each case. The half-maximal inhibitory concentration (IC50) at MAGL [3] (setting [5]) is under 100 nM.
For the molecule `CCC(C)(C)C(=O)N1CCn2cc(C(=O)NC3(C)CCN(C(=O)OC(C(F)(F)F)C(F)(F)F)CC3)nc2C1` [Example 193, 1,1,1,3,3,3-Hexafluoropropan-2-yl 4-(7-(2,2-dimethylbutanoyl)-5,6,7,8-tetrahydroimidazo[1,2-a]pyrazine-2-carboxamido)-4-methylpiperidine-1-carboxylate], the inhibition at 1 µM at MAGL [1] and at MAGL [3] (setting [4]) was over 75% throughout. At MAGL [3] (setting [5]), the 50% inhibitory concentration (IC50) is under 100 nM.
`O=C(OC(C(F)(F)F)C(F)(F)F)N1CCC2(CCCN2C(=O)Cc2ncccn2)CC1` [Example 195, 1,1,1,3,3,3-Hexafluoropropan-2-yl 1-(2-(pyrimidin-2-yl)acetyl)-1,8-diazaspiro[4.5] decane-8-carboxylate]: the values for the inhibition at 1 µM on MAGL [1], on MAGL [3] (setting [4]) and at MAGL [3] (setting [6]) were under 25%, over 75% and over 75%, respectively.
Regarding `O=C(OC(C(F)(F)F)C(F)(F)F)N1CCC2(CCCN2C(=O)C(F)(F)c2ncc(F)cn2)CC1` [Example 196, 1,1,1,3,3,3-Hexafluoropropan-2-yl 1-(2,2-difluoro-2-(5-fluoropyrimidin-2-yl)acetyl)-1,8-diazaspiro [4.5]decane-8-carboxylate], the inhibition at 1 µM on MAGL [1], on MAGL [3] (setting [4]) and at MAGL [3] (setting [6]) was over 75% in each case.
For `CN(C(=O)C(F)(F)c1cnccn1)C1(C)CCN(C(=O)OC(C(F)(F)F)C(F)(F)F)CC1` [Example 198, 1,1,1,3,3,3-Hexafluoropropan-2-yl 4-(2,2-difluoro-N-methyl-2-(pyrazin-2-yl)acetamido)-4-methylpiperidine-1-carboxylate], the inhibition at 1 µM on MAGL [1], on MAGL [3] (setting [4]) and on MAGL [3] (setting [6]) was over 75% each time.
Take `COc1cnc(C(F)(F)C(=O)N(C)C2(C)CCN(C(=O)OC(C(F)(F)F)C(F)(F)F)CC2)cn1` [Example 199, 1,1,1,3,3,3-Hexafluoropropan-2-yl 4-(2,2-difluoro-2-(5-methoxypyrazin-2-yl)-N-methylacetamido)-4-methylpiperidine-1-carboxylate]: the inhibition at 1 µM at MAGL [1], on MAGL [3] (setting [4]) and at MAGL [3] (setting [6]) was over 75% throughout. Also, the IC50 on MAGL [3] (human PFC (prefrontal cortex), read-out: MAGL Human PFC (IC50)) is under 100 nM.
`O=C(OC(C(F)(F)F)C(F)(F)F)N1CCC2(CCCN2C(=O)C2(c3ccnc(C4CC4)n3)CC2)CC1` [Example 201, 1,1,1,3,3,3-Hexafluoropropan-2-yl 1-(1-(2-cyclopropylpyrimidin-4-yl)cyclopropane-1-carbonyl)-1,8-diazaspiro [4.5]decane-8-carboxylate]: the inhibition at 1 µM on MAGL [1], on MAGL [3] (setting [4]) and on MAGL [3] (setting [6]) was over 75% each time. Besides, the IC50 on MAGL [3] (setting [5]) is under 100 nM.
Regarding `O=C(OC(C(F)(F)F)C(F)(F)F)N1CCC2(CCCN2C(=O)C2(c3nccc(C(F)(F)F)n3)CC2)CC1` [Example 202, 1,1,1,3,3,3-Hexafluoropropan-2-yl 1-(1-(4-(trifluoromethyl)pyrimidin-2-yl)cyclopropane-1-carbonyl)-1,8-diazaspiro [4.5]decane-8-carboxylate], the inhibition at 1 µM at MAGL [1], on MAGL [3] (setting [4]) and at MAGL [3] (setting [6]) was over 75% each time. The IC50 on MAGL [3] (setting [5]) is under 100 nM.
`COc1ccnc(C2(C(=O)N3CCCC34CCN(C(=O)OC(C(F)(F)F)C(F)(F)F)CC4)CC2)n1` [Example 203, 1,1,1,3,3,3-Hexafluoropropan-2-yl 1-(1-(4-methoxypyrimidin-2-yl)cyclopropane-1-carbonyl)-1,8-diazaspiro [4.5]decane-8-carboxylate]: the inhibition at 1 µM at MAGL [1], on MAGL [3] (setting [4]) and on MAGL [3] (setting [6]) was over 75% throughout. Moreover, on MAGL [3] (setting [5]), the half-inhibitory concentration (IC50) was under 100 nM.
`CC1(NC(=O)c2nnc3n2CCN(C2CCC2)C3)CCN(C(=O)OC(C(F)(F)F)C(F)(F)F)CC1` [Example 205, 1,1,1,3,3,3-Hexafluoropropan-2-yl 4-(7-cyclobutyl-5,6,7,8-tetrahydro-[1,2,4]triazolo[4,3-a]pyrazine-3-carboxamido)-4-methylpiperidine-1-carboxylate]: the inhibition at 1 µM on MAGL [1], at MAGL [3] (setting [4]) and on MAGL [3] (setting [6]) was over 75% in each case. In addition, the IC50 at MAGL [3] (setting [5]) is under 100 nM.
With `CN(C(=O)c1nnc2n1CCNC2)C1(C)CCN(C(=O)OC(C(F)(F)F)C(F)(F)F)CC1` [Example 210, 1,1,1,3,3,3-Hexafluoropropan-2-yl 4-methyl-4-(N-methyl-5,6,7,8-tetrahydro-[1,2,4]triazolo [4,3-a]pyrazine-3-carboxamido) piperidine-1-carboxylate], the inhibition at 1 µM at MAGL [1] was 25 to 75%; on MAGL [3] (setting [4]) it was 25 to 75%; on MAGL [3] (setting [6]), over 75%.
For `COCCN(C(=O)C1(c2ncccn2)CC1)C1(C)CCN(C(=O)OC(C(F)(F)F)C(F)(F)F)CC1` [Example 212, 1,1,1,3,3,3-hexafluoropropan-2-yl 4-(N-(2-methoxyethyl)-1-(pyrimidin-2-yl)cyclopropane-1-carboxamido)-4-methylpiperidine-1-carboxylate], the inhibition at 1 µM at MAGL [1], at MAGL [3] (setting [4]) and at MAGL [3] (setting [6]) was over 75% each time.
